Source: publication PMC12698583, “Efficacy of sulfonamides targeting malic enzyme in an animal model of Chagas disease” (Frontiers in Pharmacology, 2025)

Experiments:
[1] = Tolerability study, Hippocratic screening; type: in vivo, mice; design: Hypnosis / Sedation / Urination / Tachypnea / Muscle tone / Convulsions / Salivation / Tremors / Vocalization / Limb abduction / Ataxia: scale not given here; conditions: 150 mg/kg PO
Experimental: A tolerability study of drug candidates was conducted using the Hippocratic screening protocol, focusing on the assessment of effects on the central nervous system (CNS) and autonomic nervous system (ANS). Each group containing 3 animals received a 150 mg/kg dose of the compounds via oral (PO) administration (gavage). During the experiment, various behavioral and physiological parameters were monitored at regular intervals, ranging from 0 to 24 hours after administration of the substance.

[2] = in vitro; type: in vitro ADME; conditions: for Papp at 5 h, 100 μM: PAMPA
Experimental: The parallel artificial membrane permeability assay (PAMPA) was performed using a 96-well pre-coated plate system (Corning® BioCoat™ PAMPA Plate System). […] A total of 200 µL of each solution was added to donor wells, while 300 µL of PBS was placed in the corresponding acceptor wells. The plates were assembled and incubated at 37 °C for 5 h. Aliquots of the initial donor solution (T0) were collected before incubation and stored at −20 °C. At the end of the incubation, samples from donor and acceptor compartments were transferred to tubes containing 30% (v/v) acetonitrile and processed under identical conditions. Compound concentrations in donor, acceptor, and T0 samples were quantified by high-performance liquid chromatography with ultraviolet detection (HPLC-UV) using validated chromatographic conditions. The apparent permeability coefficient (Papp) was calculated using the standard PAMPA equation, shown below. All experiments were performed in a trplicate.
The Papp equation is: Papp=−VD+VA/At VD+VAln 1−CA t/Ceq

[3] = pH 5.5, PAMPA pH 5,5 Papp - lower
[4] = pH 5.5, PAMPA pH 5,5 Papp - upper
[5] = pH 7.4, PAMPA pH 7,4 Papp - lower
[6] = pH 7.4, PAMPA pH 7,4 Papp - upper

COc1ccc(NS(=O)(=O)c2cccc(NC(=O)c3cnccn3)c2)cc1 [AC-R008, N-(3-(N-(4-methoxyphenyl)sulfamoyl)phenyl)pyrazine-2-carboxamide]
0A: Ataxia ([1]; 0-15 min) | Convulsions ([1]; 0-15 min) | Hypnosis ([1]; 0-15 min) | Limb abduction ([1]; 0-15 min) | Muscle tone ([1]; 0-15 min) | Pedaling ([1]; 0-15 min) | Piloerection ([1]; 0-15 min) | Ptosis ([1]; 0-15 min) | Salivation ([1]; 0-15 min) | Sedation ([1]; 0-15 min) | Tachypnea ([1]; 0-15 min) | Tremors ([1]; 0-15 min) | Urination ([1]; 0-15 min) | Vocalization ([1]; 0-15 min) | Ataxia ([1]; 15 min) | Convulsions ([1]; 15 min) | Hypnosis ([1]; 15 min) | Limb abduction ([1]; 15 min) | Muscle tone ([1]; 15 min) | Pedaling ([1]; 15 min) | Piloerection ([1]; 15 min) | Ptosis ([1]; 15 min) | Salivation ([1]; 15 min) | Sedation ([1]; 15 min) | Tachypnea ([1]; 15 min) | Tremors ([1]; 15 min) | Urination ([1]; 15 min) | Vocalization ([1]; 15 min) | Ataxia ([1]; 30 min) | Convulsions ([1]; 30 min) | Hypnosis ([1]; 30 min) | Limb abduction ([1]; 30 min) | Muscle tone ([1]; 30 min) | Pedaling ([1]; 30 min) | Piloerection ([1]; 30 min) | Ptosis ([1]; 30 min) | Salivation ([1]; 30 min) | Sedation ([1]; 30 min) | Tachypnea ([1]; 30 min) | Tremors ([1]; 30 min) | Urination ([1]; 30 min) | Vocalization ([1]; 30 min) | Ataxia ([1]; 60 min) | Convulsions ([1]; 60 min) | Hypnosis ([1]; 60 min) | Limb abduction ([1]; 60 min) | Muscle tone ([1]; 60 min) | Pedaling ([1]; 60 min) | Piloerection ([1]; 60 min) | Ptosis ([1]; 60 min) | Salivation ([1]; 60 min) | Sedation ([1]; 60 min) | Tachypnea ([1]; 60 min) | Tremors ([1]; 60 min) | Urination ([1]; 60 min) | Vocalization ([1]; 60 min) | Ataxia ([1]; 2h) | Convulsions ([1]; 2h) | Hypnosis ([1]; 2h) | Limb abduction ([1]; 2h) | Muscle tone ([1]; 2h) | Pedaling ([1]; 2h) | Piloerection ([1]; 2h) | Ptosis ([1]; 2h) | Salivation ([1]; 2h) | Sedation ([1]; 2h) | Tachypnea ([1]; 2h) | Tremors ([1]; 2h) | Urination ([1]; 2h) | Vocalization ([1]; 2h) | Ataxia ([1]; 3h) | Convulsions ([1]; 3h) | Hypnosis ([1]; 3h) | Limb abduction ([1]; 3h) | Muscle tone ([1]; 3h) | Pedaling ([1]; 3h) | Piloerection ([1]; 3h) | Ptosis ([1]; 3h) | Salivation ([1]; 3h) | Sedation ([1]; 3h) | Tachypnea ([1]; 3h) | Tremors ([1]; 3h) | Urination ([1]; 3h) | Vocalization ([1]; 3h) | Ataxia ([1]; 4h) | Convulsions ([1]; 4h) | Hypnosis ([1]; 4h) | Limb abduction ([1]; 4h) | Muscle tone ([1]; 4h) | Pedaling ([1]; 4h) | Piloerection ([1]; 4h) | Ptosis ([1]; 4h) | Salivation ([1]; 4h) | Sedation ([1]; 4h) | Tachypnea ([1]; 4h) | Tremors ([1]; 4h) | Urination ([1]; 4h) | Vocalization ([1]; 4h) | Ataxia ([1]; 24h) | Convulsions ([1]; 24h) | Hypnosis ([1]; 24h) | Limb abduction ([1]; 24h) | Muscle tone ([1]; 24h) | Pedaling ([1]; 24h) | Piloerection ([1]; 24h) | Ptosis ([1]; 24h) | Salivation ([1]; 24h) | Sedation ([1]; 24h) | Tachypnea ([1]; 24h) | Tremors ([1]; 24h) | Urination ([1]; 24h) | Vocalization ([1]; 24h)
92 ×10⁻⁶ cm/s: Papp at 5 h, 100 μM ([2]; pH 7.4, PAMPA Papp at pH 7.4) | Papp at 5 h, 100 μM [2, 5]
86 ×10⁻⁶ cm/s: Papp at 5 h, 100 μM [2, 6]
40.5 ×10⁻⁶ cm/s: Papp at 5 h, 100 μM [2, 3]
56 ×10⁻⁶ cm/s: Papp at 5 h, 100 μM [2, 4]

CC(C)Oc1ccc(NS(=O)(=O)c2cccc(NC(=O)c3cnccn3)c2)cc1 [AC-M110, N-(3-(N-(4-isopropoxyphenyl)sulfamoyl)phenyl)pyrazine-2-carboxamide]
4.4 ×10⁻⁶ cm/s: Papp at 5 h, 100 μM [2, 4]
3.4 ×10⁻⁶ cm/s: Papp at 5 h, 100 μM [2, 3]
9.6 ×10⁻⁶ cm/s: Papp at 5 h, 100 μM [2, 6]
0A: Ataxia ([1]; 0-15 min) | Convulsions ([1]; 0-15 min) | Hypnosis ([1]; 0-15 min) | Limb abduction ([1]; 0-15 min) | Muscle tone ([1]; 0-15 min) | Pedaling ([1]; 0-15 min) | Piloerection ([1]; 0-15 min) | Ptosis ([1]; 0-15 min) | Salivation ([1]; 0-15 min) | Sedation ([1]; 0-15 min) | Tachypnea ([1]; 0-15 min) | Tremors ([1]; 0-15 min) | Urination ([1]; 0-15 min) | Vocalization ([1]; 0-15 min) | Ataxia ([1]; 15 min) | Convulsions ([1]; 15 min) | Hypnosis ([1]; 15 min) | Limb abduction ([1]; 15 min) | Muscle tone ([1]; 15 min) | Pedaling ([1]; 15 min) | Piloerection ([1]; 15 min) | Ptosis ([1]; 15 min) | Salivation ([1]; 15 min) | Sedation ([1]; 15 min) | Tachypnea ([1]; 15 min) | Tremors ([1]; 15 min) | Urination ([1]; 15 min) | Vocalization ([1]; 15 min) | Ataxia ([1]; 30 min) | Convulsions ([1]; 30 min) | Hypnosis ([1]; 30 min) | Limb abduction ([1]; 30 min) | Muscle tone ([1]; 30 min) | Pedaling ([1]; 30 min) | Piloerection ([1]; 30 min) | Ptosis ([1]; 30 min) | Salivation ([1]; 30 min) | Sedation ([1]; 30 min) | Tachypnea ([1]; 30 min) | Tremors ([1]; 30 min) | Urination ([1]; 30 min) | Vocalization ([1]; 30 min) | Ataxia ([1]; 60 min) | Convulsions ([1]; 60 min) | Hypnosis ([1]; 60 min) | Limb abduction ([1]; 60 min) | Muscle tone ([1]; 60 min) | Pedaling ([1]; 60 min) | Piloerection ([1]; 60 min) | Ptosis ([1]; 60 min) | Salivation ([1]; 60 min) | Sedation ([1]; 60 min) | Tachypnea ([1]; 60 min) | Tremors ([1]; 60 min) | Urination ([1]; 60 min) | Vocalization ([1]; 60 min) | Ataxia ([1]; 2h) | Convulsions ([1]; 2h) | Hypnosis ([1]; 2h) | Limb abduction ([1]; 2h) | Muscle tone ([1]; 2h) | Pedaling ([1]; 2h) | Piloerection ([1]; 2h) | Ptosis ([1]; 2h) | Salivation ([1]; 2h) | Sedation ([1]; 2h) | Tachypnea ([1]; 2h) | Tremors ([1]; 2h) | Urination ([1]; 2h) | Vocalization ([1]; 2h) | Ataxia ([1]; 3h) | Convulsions ([1]; 3h) | Hypnosis ([1]; 3h) | Limb abduction ([1]; 3h) | Muscle tone ([1]; 3h) | Pedaling ([1]; 3h) | Piloerection ([1]; 3h) | Ptosis ([1]; 3h) | Salivation ([1]; 3h) | Sedation ([1]; 3h) | Tachypnea ([1]; 3h) | Tremors ([1]; 3h) | Urination ([1]; 3h) | Vocalization ([1]; 3h) | Ataxia ([1]; 4h) | Convulsions ([1]; 4h) | Hypnosis ([1]; 4h) | Limb abduction ([1]; 4h) | Muscle tone ([1]; 4h) | Pedaling ([1]; 4h) | Piloerection ([1]; 4h) | Ptosis ([1]; 4h) | Salivation ([1]; 4h) | Sedation ([1]; 4h) | Tachypnea ([1]; 4h) | Tremors ([1]; 4h) | Urination ([1]; 4h) | Vocalization ([1]; 4h) | Ataxia ([1]; 24h) | Convulsions ([1]; 24h) | Hypnosis ([1]; 24h) | Limb abduction ([1]; 24h) | Muscle tone ([1]; 24h) | Pedaling ([1]; 24h) | Piloerection ([1]; 24h) | Ptosis ([1]; 24h) | Salivation ([1]; 24h) | Sedation ([1]; 24h) | Tachypnea ([1]; 24h) | Tremors ([1]; 24h) | Urination ([1]; 24h) | Vocalization ([1]; 24h)
3.4–4.5 × 10^−6: PAMPA Papp at pH 5.5 ([2]; pH 5.5)
9.1 ×10⁻⁶ cm/s: Papp at 5 h, 100 μM [2, 5]
